Measurements reported in ChEMBL document CHEMBL1201862, “PubChem BioAssay data set” (2004).
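Test compounds were applied to cells in 96-well plates for 48 hours at 5 doses. GI50 is the concentration that inhibits growth by half.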 Calls of active or inactive are those of the source. Rule as the data show it: active = GI50 up to about 1.1 µM and inactive = higher.

Columns and labels:
Test in all cases: NCI tumour cell line growth inhibition, 48 h
[1] = test system: HCT-116
[2] = test system: SN12C
[3] = test system: LOX IMVI
[4] = test system: OVCAR-8
[5] = test system: 786-0
[6] = test system: NCI-H226
[7] = test system: OVCAR-3
[8] = test system: KM12
[9] = test system: BT-549
[10] = test system: K562
[11] = test system: NCI-H23
[12] = test system: RPMI-8226
[13] = test system: NCI-H460
[14] = test system: MCF7
[15] = test system: UACC-62
[16] = test system: ACHN
[17] = test system: DU-145
[18] = test system: SK-MEL-5
[19] = test system: RXF 393
[20] = test system: CCRF-CEM

CO[C@@]12C[C@H](CNC(=O)c3ccc[nH]3)O[C@@H]1NC(=O)N2
GI50 [1]: > 100 µM (inactive)
GI50 [2]: > 100 µM (inactive)
GI50 [3]: > 100 µM (inactive)
GI50 [4]: > 100 µM (inactive)
GI50 [5]: > 100 µM (inactive)
GI50 [6]: > 100 µM (inactive)
GI50 [7]: > 100 µM (inactive)
GI50 [8]: > 100 µM (inactive)
GI50 [9]: > 100 µM (inactive)
GI50 [10]: > 100 µM (inactive)
GI50 [11]: > 100 µM (inactive)
GI50 [12]: > 100 µM (inactive)
GI50 [13]: > 100 µM (inactive)
GI50 [14]: > 100 µM (inactive)
GI50 [15]: > 100 µM (inactive)
GI50 [16]: > 100 µM (inactive)
GI50 [17]: > 100 µM (inactive)
GI50 [18]: > 100 µM (inactive)

Nc1c2ccccc2nc2c1ccc1ncccc12
GI50 [19]: 24.8 µM (inactive)
GI50 [1]: 5.22 µM (inactive)
GI50 [2]: 21.1 µM (inactive)
GI50 [3]: 6.03 µM (inactive)
GI50 [4]: 21.2 µM (inactive)
GI50 [5]: 9.79 µM (inactive)
GI50 [6]: 13.9 µM (inactive)
GI50 [7]: 24 µM (inactive)
GI50 [8]: 15.1 µM (inactive)
GI50 [9]: 48.3 µM (inactive)
GI50 [10]: 12.5 µM (inactive)
GI50 [11]: 17.4 µM (inactive)
GI50 [20]: 6.78 µM (inactive)
GI50 [13]: 5.83 µM (inactive)
GI50 [14]: 6.46 µM (inactive)
GI50 [15]: 14.5 µM (inactive)
GI50 [16]: 5.38 µM (inactive)
GI50 [17]: 28.2 µM (inactive)
GI50 [18]: 28.4 µM (inactive)

COC(=O)c1sc(=O)sc1SCc1cccc(CSc2sc(=O)sc2C(=O)OC)c1
GI50 [19]: 26 µM (inactive)
GI50 [1]: 56.1 µM (inactive)
GI50 [2]: 39.7 µM (inactive)
GI50 [3]: > 100 µM (inactive)
GI50 [4]: 37.2 µM (inactive)
GI50 [5]: 17.6 µM (inactive)
GI50 [6]: 61.4 µM (inactive)
GI50 [7]: 23.9 µM (inactive)
GI50 [8]: > 100 µM (inactive)
GI50 [9]: 36.4 µM (inactive)
GI50 [10]: 43.3 µM (inactive)
GI50 [11]: 52.6 µM (inactive)
GI50 [20]: 50.5 µM (inactive)
GI50 [13]: 35.1 µM (inactive)
GI50 [14]: 9.33 µM (inactive)
GI50 [15]: 33.7 µM (inactive)
GI50 [16]: 30 µM (inactive)
GI50 [17]: 92.3 µM (inactive)
GI50 [18]: > 100 µM (inactive)

CC(C)(C)OC(=O)[C@@H]1ON2O[C@H](OC3CCCC3(c3ccccc3)c3ccccc3)C[C@H]3OC(=O)[C@@H]1[C@H]32 (stereo partly specified)
GI50 [19]: 25.7 µM (inactive)
GI50 [1]: 32 µM (inactive)
GI50 [2]: 58.5 µM (inactive)
GI50 [3]: 31.4 µM (inactive)
GI50 [5]: 50.1 µM (inactive)
GI50 [6]: 36.9 µM (inactive)
GI50 [7]: 16.1 µM (inactive)
GI50 [8]: 36.1 µM (inactive)
GI50 [9]: 66.7 µM (inactive)
GI50 [10]: 36.4 µM (inactive)
GI50 [11]: 46.5 µM (inactive)
GI50 [20]: > 100 µM (inactive)
GI50 [13]: 54.3 µM (inactive)
GI50 [14]: 70 µM (inactive)
GI50 [15]: 98.9 µM (inactive)
GI50 [16]: > 100 µM (inactive)
GI50 [17]: 81.8 µM (inactive)
GI50 [18]: 41.6 µM (inactive)

O=C(O)c1cc(NC2=C(Cl)C(=O)c3c(O)ccc(O)c3C2=O)ccc1O
GI50 [1]: > 10 µM (inactive)
GI50 [2]: > 10 µM (inactive)
GI50 [3]: > 10 µM (inactive)
GI50 [4]: > 10 µM (inactive)
GI50 [5]: > 10 µM (inactive)
GI50 [6]: > 10 µM (inactive)
GI50 [7]: > 10 µM (inactive)
GI50 [8]: > 10 µM (inactive)
GI50 [9]: > 10 µM (inactive)
GI50 [10]: > 10 µM (inactive)
GI50 [11]: > 10 µM (inactive)
GI50 [20]: > 10 µM (inactive)
GI50 [13]: > 10 µM (inactive)
GI50 [14]: > 10 µM (inactive)
GI50 [15]: > 10 µM (inactive)
GI50 [16]: > 10 µM (inactive)
GI50 [17]: > 10 µM (inactive)
GI50 [18]: > 10 µM (inactive)

Cc1cc2c(cc1Cl)SC(c1ccccc1O)NS2(=O)=O (stereo unspecified)
GI50 [19]: 53.5 µM (inactive)
GI50 [1]: 27.5 µM (inactive)
GI50 [2]: 41 µM (inactive)
GI50 [3]: 43.8 µM (inactive)
GI50 [4]: > 100 µM (inactive)
GI50 [5]: 34.7 µM (inactive)
GI50 [6]: 86.5 µM (inactive)
GI50 [7]: 21.7 µM (inactive)
GI50 [8]: 94 µM (inactive)
GI50 [9]: 47.2 µM (inactive)
GI50 [10]: 27.7 µM (inactive)
GI50 [11]: 70.6 µM (inactive)
GI50 [20]: < 0.01 µM (active)
GI50 [13]: 92 µM (inactive)
GI50 [14]: 36.9 µM (inactive)
GI50 [15]: 29.6 µM (inactive)
GI50 [16]: 52.8 µM (inactive)
GI50 [17]: 33.9 µM (inactive)
GI50 [18]: 42.7 µM (inactive)

CC(C)=CC(=O)c1[nH]c2ccccc2c1CC(=O)NCCc1cncn1C
GI50 [19]: 29.6 µM (inactive)
GI50 [1]: 67.9 µM (inactive)
GI50 [2]: 77.1 µM (inactive)
GI50 [3]: 55.5 µM (inactive)
GI50 [4]: 62.4 µM (inactive)
GI50 [5]: 98.9 µM (inactive)
GI50 [6]: 88.3 µM (inactive)
GI50 [7]: 58.1 µM (inactive)
GI50 [8]: 55.7 µM (inactive)
GI50 [9]: 56.9 µM (inactive)
GI50 [10]: 30.5 µM (inactive)
GI50 [11]: 51.1 µM (inactive)
GI50 [20]: 55.2 µM (inactive)
GI50 [13]: 52.6 µM (inactive)
GI50 [14]: 42.4 µM (inactive)
GI50 [15]: 61.9 µM (inactive)
GI50 [16]: 66.4 µM (inactive)
GI50 [17]: 32.5 µM (inactive)
GI50 [18]: 94.8 µM (inactive)

C[C@H](CC[C@@H](O)C(C)(C)O)[C@H]1CC[C@@]2(C)[C@@H]3CC=C4[C@@H](CC[C@H](O)C4(C)C)[C@]3(C)C(=O)C[C@]12C [BRYODULCOSIGENIN]
GI50 [1]: 22 µM (inactive)
GI50 [2]: 28.6 µM (inactive)
GI50 [3]: 45.9 µM (inactive)
GI50 [4]: 27.4 µM (inactive)
GI50 [5]: 38.3 µM (inactive)
GI50 [6]: 20.8 µM (inactive)
GI50 [7]: > 50 µM (inactive)
GI50 [8]: 15.1 µM (inactive)
GI50 [9]: 23.6 µM (inactive)
GI50 [10]: 19.6 µM (inactive)
GI50 [11]: 26.6 µM (inactive)
GI50 [12]: 13.3 µM (inactive)
GI50 [20]: 16.5 µM (inactive)
GI50 [13]: 31.1 µM (inactive)
GI50 [14]: 3.05 µM (inactive)
GI50 [16]: > 50 µM (inactive)
GI50 [17]: > 50 µM (inactive)
GI50 [18]: 24.7 µM (inactive)

CCCCCCCCCCCCCCCCCCNC(=S)N/C=C1\C(=O)Nc2ccccc2C1=O
GI50 [19]: 22.2 µM (inactive)
GI50 [1]: 15.7 µM (inactive)
GI50 [2]: 22.4 µM (inactive)
GI50 [3]: 16.3 µM (inactive)
GI50 [4]: 15.6 µM (inactive)
GI50 [5]: 15.6 µM (inactive)
GI50 [6]: 22.9 µM (inactive)
GI50 [7]: 18.5 µM (inactive)
GI50 [8]: 16.1 µM (inactive)
GI50 [9]: 18.9 µM (inactive)
GI50 [11]: 18.9 µM (inactive)
GI50 [13]: 16.1 µM (inactive)
GI50 [14]: 20.2 µM (inactive)
GI50 [16]: 16.4 µM (inactive)
GI50 [17]: 16 µM (inactive)
GI50 [18]: 24.2 µM (inactive)

CS/C(=N\Nc1cnc2ccccc2n1)NS(=O)(=O)c1cc(C)c(Cl)cc1Cl
GI50 [19]: > 100 µM (inactive)
GI50 [1]: > 100 µM (inactive)
GI50 [2]: > 100 µM (inactive)
GI50 [3]: 61.1 µM (inactive)
GI50 [4]: > 100 µM (inactive)
GI50 [5]: > 100 µM (inactive)
GI50 [6]: > 100 µM (inactive)
GI50 [7]: 59.6 µM (inactive)
GI50 [8]: > 100 µM (inactive)
GI50 [9]: > 100 µM (inactive)
GI50 [10]: > 100 µM (inactive)
GI50 [11]: > 100 µM (inactive)
GI50 [20]: > 100 µM (inactive)
GI50 [13]: > 100 µM (inactive)
GI50 [14]: 65.6 µM (inactive)
GI50 [15]: 50.7 µM (inactive)
GI50 [16]: > 100 µM (inactive)
GI50 [17]: > 100 µM (inactive)
GI50 [18]: > 100 µM (inactive)

N=C(N)C1CN(CCc2c[nH]c3ccccc23)C(=O)NC1=O (stereo unspecified)
GI50 [1]: > 100 µM (inactive)
GI50 [2]: > 100 µM (inactive)
GI50 [3]: > 100 µM (inactive)
GI50 [4]: > 100 µM (inactive)
GI50 [5]: > 100 µM (inactive)
GI50 [6]: > 100 µM (inactive)
GI50 [7]: > 100 µM (inactive)
GI50 [9]: > 100 µM (inactive)
GI50 [10]: > 100 µM (inactive)
GI50 [11]: > 100 µM (inactive)
GI50 [12]: > 100 µM (inactive)
GI50 [20]: > 100 µM (inactive)
GI50 [13]: > 100 µM (inactive)
GI50 [14]: > 100 µM (inactive)
GI50 [15]: > 100 µM (inactive)
GI50 [16]: > 100 µM (inactive)
GI50 [17]: > 100 µM (inactive)
GI50 [18]: > 100 µM (inactive)
